Values of other authors as cited in patent publication US20030099725A1, “Herbal compositions useful as chemopreventive and therapeutic agents and methods of manufacturing same” (priority 2001, published 2003).

Test system: women at high risk of breast cancer

Question: For CC/C(=C(\c1ccccc1)c1ccc(OCCN(C)C)cc1)c1ccccc1 [Tamoxifen], which “decrease in invasive cancer versus placebo” value is on record?
Answer: Its value is 49%.

Question: And the “decrease in non-invasive breast cancer versus placebo” value?
Answer: Its value is 50%.
